According to patent publication US4212866A, “Pharmaceutically active derivatives of 9-[3-(4-amino-piperidino)-propyl]-adenines” (Boehringer Mannheim GmbH, priority 1978, dated 1980):

tested on: passive cutaneous anaphylactic reaction; assay: inhibition of the passive cutaneous anaphylactic (PCA) reaction in rats induced by reaginic antibodies to egg albumin; type: in vivo; conditions: Rattus norvegicus, iv, 0.75 mg/kg, intravenously immediately before antigen
Method: Diethylcarbamazin, i.e. 1-diethylcarbamoyl-4-methylpiperazine, was used as a comparison compound. Specifically, tests were run as follows:
Serum containing reaginic (IgE-like) antibody to egg albumin was prepared by injecting rats intramuscularly with 0.1 ml of a solution of the antigen (10 mg/ml) in saline together with 0.5 ml of Bordetella pertussis vaccine (Behring; 2×10^10 organisms/ml). 9-14 Days later the animals were bled from the abdominal aorta; the serum was pooled and stored at -20° C. until required. The titer of the serum, i.e. the highest dilution inducing passive cutaneous anaphylaxis (PCA) in the rat following a 48-hour latent period, was between 1:8 and 1:32. For use in these experiments the serum was diluted 1:24.
The animals were anesthetized with 2,2-dichloro-1,1-difluoroethyl-methyl ether, sold under the trademark Penthrane, and were sensitized by injecting 0.1 ml of the antiserum into the shaved abdominal flanks. After 48 hours for reaginic PCA, the animals were given an intravenous injection of 1 ml of saline solution containing 0.5% by weight of egg albumin and 0.25% by weight of Evans Blue.
After having killed and exsanguinated the animals, the size in square millimeters and the intensity, in arbitary scores, of the resulting blue spot were determined. The product of these two parameters was used to determine the degree of the reaction and the degree of reaction with no active material was taken as the standard against which to measure % inhibition of the anaphylactic reaction.
6 Animals were used per dose level and for control.
The test material was injected intravenously immediately before the antigen, using a solution in water containing 0.5% HCl and 2% of dimethylformamide. For comparative purposes there was also tested diethylcarbamoyl-4-methylpiperazine sold under the tradename Diethylcarbamazin. The volumes of the injections were varied to give the indicated dosage of the active material. The results obtained were as follows:
PCA Reaction in Rats Induced by Reaginic Antibodies
(Ovalbumin 2×cryst, and Bord. pertussis 2×10^10) Active material applied intravenously immediately before antigen.

Row | SMILES | inhibition in vivo at 0.75 mg/kg
1 | O=C(NC1CCN(CCCn2cnc3c(NCCO)ncnc32)CC1)c1ccccc1 [Example 2j, N^6-(2-Hydroxyethyl)-9-[3-(4-benzamido-piperidino)-propyl] adenine] | 44%
2 | CCCCNc1ncnc2c1ncn2CCCN1CCC(NC(=O)c2ccccc2)CC1 [Example 2k, N^6-n-Butyl-9-[3-(4-Benzamido-piperidino)-propyl]-adenine] | 41%

same assay, conditions: Rattus norvegicus, iv, 1.5 mg/kg, intravenously immediately before antigen

Row | SMILES | inhibition in vivo at 1.5 mg/kg
3 | Nc1ncnc2c1ncn2CCCN1CCC(NC(=O)c2ccc(F)cc2)CC1 [Example 2b, 9-{3-[4-(4-Fluorobenzamido)-piperidino]-propyl}-adenine] | 65%
4 | Cc1ccccc1C(=O)NC1CCN(CCCn2cnc3c(N)ncnc32)CC1 [Example 2e, 9-{3-[4-(2-Methyl-benzamido)-piperidino]-propyl}-adenine] | 39%
5 | Cc1ccc(C(=O)NC2CCN(CCCn3cnc4c(N)ncnc43)CC2)cc1 [Example 2f, 9-{-[4-(4-Methyl-benzamido)-piperidio]-propyl}-adenine] | 74%
6 | CN(C)c1ncnc2c1ncn2CCCN1CCC(NC(=O)c2ccccc2)CC1 [Example 2l, 6-Dimethylamino-9-[3-(4-benzamido-piperidino)-propyl]-purine] | 43%
7 | O=C(NC1CCN(CCCn2cnc3c(N4CCCCC4)ncnc32)CC1)c1ccccc1 [Example 2m, 6-Piperidino-9-[3-(4-benzamido-piperidino)-propyl]-purine] | 36%
8 | Nc1ncnc2c1ncn2CCCN1CCC(NC(=O)c2ccc(Cl)cc2)CC1 [Example 4a, 9-{3-[4-(4-Chlorobenzamido)-piperidino]-propyl}-adenine] | 80%
9 | Nc1ncnc2c1ncn2CCCN1CCC(NC(=O)Cc2ccccc2)CC1 [Example 4d, 9-{3-[4-(Phenyl-acetamido)-piperidino]-propyl}-adenine] | 30%
10 | Nc1ncnc2c1ncn2CCCN1CCC(NC(=O)c2ccco2)CC1 [Example 4f, 9-{3-[4-(Furan-2-carbonylamido)-piperidino]-propyol}-adenine] | 44%

same assay, conditions: Rattus norvegicus, iv, 60.0 mg/kg, intravenously immediately before antigen

Row | SMILES | inhibition in vivo at 60 mg/kg
11 | CCN(CC)C(=O)N1CCN(C)CC1 [Diethylcarbamazin, 1-diethylcarbamoyl-4-methylpiperazine, reference compound] | 58%
